Laboratory results reported in US20230181524A1, “PHARMACEUTICAL COMBINATION AND USE THEREOF” (NATURAL MEDICINE INSTITUTE OF ZHEJIANG YANGSHENGTANG CO., …, priority 2020, published 2023).
Entries after “also recorded” stand apart in the source; their conditions may differ. Where two headings read alike, the source gives them in different places.

What was measured:
macrophages = test: Cell viability of immune cells by cell count; assay type: cell-based; conditions: 0.1 μM PKF118-310 in combination with 0.5 mM ascorbic acid, 24h
Protocol: (§1) Immune cells comprise T cells and Macrophages, wherein the T cells are cultured with a 1640 medium, and the macrophages are cultured with a DMEM medium. The particular procedures are follows:
(§2) 10 μL was taken for counting.
(§3) (5) After 24h of dosing, the medium was discarded. […] The cells were digested for 5 min;

T cells = test: Cell viability of immune cells by cell count; assay type: cell-based; conditions: 0.1 μM PKF118-310 in combination with 0.5 mM ascorbic acid, 24h
Protocol: as §1, §2, §3

[1] = system: 3AO human ovarian cancer cells; test: cells; conditions: 3AO cells
Protocol: (§4) (1) Cells were plated in a 10 cm culture plate to grow a density of about 90%. The medium was removed, and the adherent cells were washed once with a PBS buffer. 1 mL of trypsin was added, and immediately discarded after mixing well. The cells were placed in the incubator and digested for about 5 min, and then about 10 ml of fresh medium was added. 10 μL was taken for counting.
(§5) (2) 10 μL of the well-mixed cells were taken and mixed into 10 μL of Trypan Blue solution, and counted.
(§6) (3) After counting, the cells were diluted to 1×10^5 cells/ml. The diluted cells were mixed well, and plated into a 24-well plate with 500 μL per well, i.e., about 50,000 cells per well.
(§7) (4) The cells plated in the 24-well plate were cultured for about 24h, and then drugs were added. Various test groups comprise 5 groups as follows: the single-drug group of PKF118-310 (with a concentration of 0.1 μM), the group of ascorbic acid (with a concentration of 0.5 mM), the group of PKF118-310 (with a concentration of 0.1 μM) in combination with ascorbic acid (with a concentration of 0.5 mM); the control group that is a cell group to which only solvent DMSO is added; and the blank group that is a group to which no cell is added and only solvent (DMSO) is added.
(§8) (5) After 24h of dosing, the medium was discarded. About 150 μL of trypsin was added and then discarded. The cells were digested for 5 min;
(§9) (6) After digestion, equivalent amounts of PBS were added into each well and mixed uniformly. Then, 10 μL/well of Trypan Blue solution was added and mixed uniformly. 10 μL of the well-mixed solution was taken and counted. In accordance with “Cell viability=Cell Count of Test Group/Cell Count of Control Group×100%”, the cell viability of various groups was calculated.
(§10) The inhibitory effect of PKF118-310 on the SKOV3 human ovarian cancer cells and the 3AO human ovarian cancer cells was detected in accordance with the corresponding method of Example 1.

[2] = system: SKOV3 human ovarian cancer cells; test: cells; conditions: SKOV3 cells
Protocol: as §4, §5, §6, §7, §8, §9, §10

[3] = system: 143B human osteosarcoma cells; test: Migration of osteosarcoma cells (scratch lines, photographs at 12h and 24h); assay type: cell-based; conditions: 143B cells, 0.1 μM PKF118-310 in combination with 0.5 mM Vc
Protocol: (§11) (1) HOS human osteosarcoma cells and 143B human osteosarcoma cells were subcultured at 37° C., 5% CO2 in an incubator with a RPMI-1640 medium containing 10% fetal bovine serum.
as §2
(§12) The diluted cells were plated into a 12-well plate with 1 mL per well, i.e., about 100,000 cells per well.
(§13) (4) The cells plated in the 12-well plate were cultured to a density of more than 80%. Then, a control group (to which DMSO was added), as well as groups to which 0.1 μM of PKF118-310, 0.5 mM Vc, and a combination of 0.1 μM of PKF118-310 with 0.5 mM sodium ascorbate were respectively added were prepared. Parallel lines were drawn with the tip of a 10 μL pipette at the bottom of the plate.
(§14) (5) The cells were placed into a 37° C., 5% CO2 incubator for incubation, and observed and recorded by photographs at 12h and 24h.

[4] = system: HOS human osteosarcoma cells; test: as above; assay type: cell-based; conditions: 0.1 μM PKF118-310 in combination with 0.5 mM Vc
Protocol: as §11, §2, §12, §13, §14

HEK293 cells = test: Cell viability compared with HEK293 cells (specificity); assay type: cell-based; conditions: in combination with ascorbic acid
Protocol: HEK293 cells, HOS human osteosarcoma cells, and 143B human osteosarcoma cells were subcultured in an incubator at 37° C., 5% CO2 using a RPMI-1640 medium containing 10% fetal bovine serum (FBS).
as §2, §3

[5] = system: MC38 human colon cancer cells; test: Cell viability, method of Example 1; conditions: MC38 cells
Protocol: as §4, §5, §6, §7, §8, §9
The inhibitory effect of PKF118-310 on the MC38 human colon cancer cells and the HCT116 human […] cancer cells was detected in accordance with the corresponding method of Example 1.

143B cells = test: Osteosarcoma tumor model in nude mice (tumor volume, Luciferin fluorescence imaging); assay type: in vivo, nude mice (BALB/c-nu)
Protocol: (1) Tumor preparation in nude mice. 6-8-week-old female nude mice (BALB/c-nu) (purchased from Vital River Laboratory Animal Technology Co., Ltd.) were selected. 143B cells were cultured in vitro to the log phase. The cells were collected and re-suspended in a PBS buffer solution. The collected cells were subcutaneously injected to the mammary glands of nude mice with 5×10^6 143B cells/nude mouse to establish a model of tumor in situ.

[6] = 0.1 μM in combination with 0.5 mM sodium ascorbate
[7] = 0.3 μM in combination with 0.5 mM sodium ascorbate
[8] = 0.5 μM in combination with 0.5 mM sodium ascorbate

With `Cn1ncnc2c(=O)n(C)c(=O)nc1-2` [PKF118-310] the “effect on immune cells (cell viability)” value (macrophages) was “does not have effect on the immune cells”, the “effect on immune cells (cell viability)” value (T cells) was “does not have effect on the immune cells” and the CDI value [1, 6] was 0.35. For the same compound, the cell viability [1, 6] was 31%, the CDI value [1, 7] was 0.19 and the cell viability [1, 7] was 13%. The cell viability ([1]; 0.05 M in combination with 0.5 mM sodium ascorbate) was 58%, the CDI value ([1]; in combination with 0.5 mM sodium ascorbate) was 0.60 and the cell viability ([1]; single-drug 0.1 μM) was 92%. It also gave a cell viability ([1]; single-drug 0.3 μM) of 69%, a cell viability ([1]; single-drug 0.05 M) of 101% and a CDI value [2, 7] of 0.31. The cell viability [2, 7] was 28%, the CDI value [2, 8] was 0.34 and the cell viability [2, 8] was 20%. The cell viability ([2]; single-drug 0.3 μM) was 94%, the cell viability ([2]; single-drug 0.5 μM) was 61% and the migration of cells [3] was “significantly inhibit the migration”. The migration of cells [4] was “significantly inhibit the migration”, the “specificity of inhibition of tumor cell viability as compared with the HEK293 cells” value (HEK293 cells) was “can specifically inhibit the cell viability of the 143B cells and the HOS cells; also recorded: can specifically inhibit the activity of the HCT116 cells and the MC38 cells” and the CDI value [5, 7] was 0.15. The cell viability [5, 7] was 11%, the cell viability ([5]; single-drug 0.3 μM) was 88% and the “tumor growth, tumor volume with time” value (143B cells; 0.7 mg/kg PKF118-310 s.c. + 1 g/kg ascorbic acid i.v. every 3 days, 6 times, vs blank control and single-drug groups (P<0.001)) was “significantly inhibits the tumor growth”. For the same compound, the “tumor volume on Day 21” value (143B cells; 0.7 mg/kg PKF118-310 s.c. + 1 g/kg ascorbic acid i.v., compared with blank control, PKF118-310 and sodium ascorbate groups) was “substantially smaller”, the “tumor growth, Luciferin fluorescence imaging” value (143B cells; Day 21, 0.7 mg/kg PKF118-310 s.c. + 1 g/kg ascorbic acid i.v. every 3 days, 6 times, vs blank control and single-drug groups) was “significantly inhibits the tumor growth” and the “effect on the body weight of mice” value (PKF118-310 0.7 mg/kg s.c. in combination with ascorbate 1 g/kg i.v. every 3 days) was “no effect on the body weight of mice”. The “effect on the body weight of mice” value (alone, PKF118-310 0.7 mg/kg s.c. or ascorbate 1 g/kg i.v. every 3 days) was “no effect on the body weight of mice”.
